Values quoted from earlier work in patent publication US20150246117A1, “TREATMENT OF TYPE 2 DIABETES AND RELATED CONDITIONS” (priority 2012, published 2015).
Where two headings read alike, the source gives them in different places. Each block holds one compound with its values, some of them ahead of it.

Key:
[1] = system: CYP3A4/5; details: coadministration with strong CYP3A4/5 inhibitors (e.g., ketoconazole)
[2] = for hypoglycemia in combination therapy: combined with sulfonylurea, insulin secretagogue or insulin
[3] = in vivo
[4] = co-administration of 100 mg sitagliptin for 10 days

Compound: O=C(CN[C@@H]1CCNC1)N1CCC[C@H]1B(O)O [dutogliptin]
Half-life (in vivo): 10 to 13 h

Compound: Dulaglutide
adverse events / tolerability in clinical studies ([2]; human, in vivo): Gastrointestinal adverse events reported

Compound: CCCCCCCCCCCCCCCC(=O)N[C@@H](CCC(=O)NCCCC[C@H](NC(=O)[C@H](C)NC(=O)[C@H](C)NC(=O)[C@H](CCC(N)=O)NC(=O)CNC(=O)[C@H](CCC(=O)O)NC(=O)[C@H](CC(C)C)NC(=O)[C@H](Cc1ccc(O)cc1)NC(=O)[C@H](CO)NC(=O)[C@H](CO)NC(=O)[C@@H](NC(=O)[C@H](CC(=O)O)NC(=O)[C@H](CO)NC(=O)[C@@H](NC(=O)[C@H](Cc1ccccc1)NC(=O)[C@@H](NC(=O)CNC(=O)[C@H](CCC(=O)O)NC(=O)[C@H](C)NC(=O)[C@@H](N)Cc1cnc[nH]1)[C@@H](C)O)[C@@H](C)O)C(C)C)C(=O)N[C@@H](CCC(=O)O)C(=O)N[C@@H](Cc1ccccc1)C(=O)N[C@H](C(=O)N[C@@H](C)C(=O)N[C@@H](Cc1c[nH]c2ccccc12)C(=O)N[C@@H](CC(C)C)C(=O)N[C@H](C(=O)N[C@@H](CCCNC(=N)N)C(=O)NCC(=O)N[C@@H](CCCNC(=N)N)C(=O)NCC(=O)O)C(C)C)[C@@H](C)CC)C(=O)O [liraglutide]
Immunogenicity-related events, including urticaria ([2]; treated patients in clinical trials (comparator-treated 0.4%)): Victoza-treated patients (0.8%) than among

Compound: Cn1c(=O)cc(N2CCC[C@@H](N)C2)n(Cc2ccccc2C#N)c1=O [Alogliptin]
Half-life (in vivo): 12.4 to 21.4 h | adverse events / tolerability in clinical studies ([2]; human, in vivo): The agent is relatively well tolerated | rate of skin events, primarily pruritus ([2]; human, in vivo): finding being a marginally higher rate

Compound: CC#CCn1c(N2CCC[C@@H](N)C2)nc2c1c(=O)n(Cc1nc(C)c3ccccc3n1)c(=O)n2C [linagliptin]
Half-life (after 5 mg dose): >100 h after 5 mg | hypoglycemia in combination therapy [2]: Hypoglycemia was more commonly

Compound: COc1ccc2cc3[n+](cc2c1OC)CCc1cc2c(cc1-3)OCO2 [berberine]
Half-life (in vivo): 3 to 4 h | adverse events / tolerability in clinical studies ([2]; human, in vivo): Transient gastrointestinal adverse

Compound: N[C@@H](CC(=O)N1CCc2c(nc(C(F)(F)F)nc2C(F)(F)F)C1)CN1CC(F)(F)CCC1=O [Gemigliptin]
Half-life (in vivo): 17 to 21 h | adverse events / tolerability in clinical studies ([2]; human, in vivo): No serious adverse events recorded.

Results, then the compound that gave them:

Half-life (after oral 5 mg): 2.5 h after | saxagliptin concentrations [1]: increases | Peripheral edema ([2]; combination with a thiazolidinedione (TZD) vs placebo and TZD): Peripheral edema was reported more
Compound: N#C[C@@H]1C[C@@H]2C[C@@H]2N1C(=O)[C@@H](N)C12CC3CC(CC(O)(C3)C1)C2 [saxagliptin]

patients showing antibodies against the drug ([2]; human, in vivo): (compared to exenatide); 49% of patients
Compound: taspoglutide

excretion in milk, animal studies [3]: excretion of vildagliptin
Compound: N#C[C@@H]1CCCN1C(=O)CNC12CC3CC(CC(O)(C3)C1)C2 [vildagliptin]

Half-life (after oral): 12.4 h after | increase in area under the curve (AUC) of digoxin [4]: curve (AUC, 11%) | fertility / fetal harm, animal studies or animal data [3]: JANUVIA did not impair | hypoglycemia in combination therapy [2]: There is an increased risk of
Compound: N[C@@H](CC(=O)N1CCn2c(nnc2C(F)(F)F)C1)Cc1cc(F)c(F)cc1F [sitagliptin]
